The results in this text go back to publication PMC5342726, “Identification of small molecule inhibitors of ERCC1-XPF that inhibit DNA repair and potentiate cisplatin efficacy in cancer cells” (Oncotarget, 2016).

One may read the IC50 as the concentration at which inhibition is half-maximal.

The target in this assay is T1, ERCC1-XPF (Homo sapiens, UniProt P07992+Q92889).
T1 construct: made in house; host or cells: Sf9 insect cells, baculovirus (obtained from Aziz Sancar)
T1 sequence (Q92889 1-916): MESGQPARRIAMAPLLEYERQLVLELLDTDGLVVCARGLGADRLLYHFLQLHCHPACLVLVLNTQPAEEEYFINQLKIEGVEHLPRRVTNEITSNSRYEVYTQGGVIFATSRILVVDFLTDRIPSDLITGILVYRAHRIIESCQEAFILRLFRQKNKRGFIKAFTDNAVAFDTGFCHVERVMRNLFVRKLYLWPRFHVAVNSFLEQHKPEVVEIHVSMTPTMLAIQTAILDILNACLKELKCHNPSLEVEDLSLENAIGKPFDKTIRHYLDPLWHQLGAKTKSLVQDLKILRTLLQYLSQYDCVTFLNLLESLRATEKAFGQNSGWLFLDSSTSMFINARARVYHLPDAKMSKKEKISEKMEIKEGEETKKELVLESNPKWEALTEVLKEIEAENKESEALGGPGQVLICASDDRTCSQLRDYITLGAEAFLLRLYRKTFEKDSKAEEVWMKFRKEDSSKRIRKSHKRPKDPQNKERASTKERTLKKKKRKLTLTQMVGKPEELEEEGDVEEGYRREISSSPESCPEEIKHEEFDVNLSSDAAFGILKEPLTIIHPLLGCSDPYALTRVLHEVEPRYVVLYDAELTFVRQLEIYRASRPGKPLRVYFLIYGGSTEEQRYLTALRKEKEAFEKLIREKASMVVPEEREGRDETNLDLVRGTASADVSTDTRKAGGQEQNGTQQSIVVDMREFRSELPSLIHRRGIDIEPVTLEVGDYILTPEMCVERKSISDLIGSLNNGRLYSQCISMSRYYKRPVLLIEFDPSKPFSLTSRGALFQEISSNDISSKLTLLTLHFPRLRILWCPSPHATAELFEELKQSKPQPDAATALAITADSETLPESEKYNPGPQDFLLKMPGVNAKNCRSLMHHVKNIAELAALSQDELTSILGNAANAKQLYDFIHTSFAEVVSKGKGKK
T1 sequence (P07992 1-297): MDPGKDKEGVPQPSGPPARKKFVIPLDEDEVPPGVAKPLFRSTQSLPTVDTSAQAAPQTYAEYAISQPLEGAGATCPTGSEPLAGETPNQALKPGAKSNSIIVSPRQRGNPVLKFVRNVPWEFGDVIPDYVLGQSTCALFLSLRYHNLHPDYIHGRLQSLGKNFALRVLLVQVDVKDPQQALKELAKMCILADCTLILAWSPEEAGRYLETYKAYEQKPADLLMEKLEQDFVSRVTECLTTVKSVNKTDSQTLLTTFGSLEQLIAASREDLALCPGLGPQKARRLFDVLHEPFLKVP
Nature of the assay: Gel-based in vitro incision assay, ERCC1-XPF. Particulars: purified ERCC1-XPF, 5'-32P DNA substrate, 37°C; read-out: IC50 from the gel-based assay. Type of assay: biochemical. The procedure: The gel-based in vitro incision assay has been described and extensively used. Here, we titrated Hit 1 (Figure 2A) with ERCC1-XPF or control endonuclease HhaI (Figure 2B) on ice and reactions were initiated by the addition of the 5'-[^32P] radiolabeled DNA substrate at 37°C. The products are visualized via phosphorimager analysis and the ERCC1-XPF or HhaI incised product is illustrated as a faster migrating band in the gel (Figure 2A and 2B).
Hits from the HTS fluorescence screen were validated in a gel based nuclease activity assay as previously described. This assay is robust and highly quantitative. Briefly, the 26- mer DNA substrate (Figure 1) was labeled on the 5'-terminus with [γ^32P]-ATP using T4 polynucleotide kinase (NEB) for 30 minutes at 37°C. The 5'-labeled DNA substrate was annealed to its complementary strand by heating to 95°C for 5 minutes, followed by 65°C and then 37°C for a total of 2 hours. This substrate was gel-purified on a 10% native polyacrylamide gel in TBE (Tris, borate, EDTA electrophoresis buffer), developed, cut and kept for gel elution overnight at 4°C. Post gel elution, the substrate was ethanol precipitated and the counts were determined. The final substrate was stored at −20°C. […]

Consider `Oc1cc(O)c2c(c1)OC(c1ccc(O)c(O)c1)C(O)C2c1c(O)cc(O)c2c1OC(c1ccc(O)c(O)c1)C(O)C2` (centres unmarked) [NSC143099], for which the half-maximal inhibitory concentration (IC50) was roughly 25 nM.
For `Cc1ccc(S(=O)(=O)Oc2cc(S(=O)(=O)O)cc3cc(S(=O)(=O)O)cc(N)c23)cc1` [NSC16168], the IC50 was roughly 500 nM.
